How the values were obtained:
[1] = tested on: barnyardgrass; assay: Test C preemergence; format: in vivo, Echinochloa crusgalli; conditions: 0 to 100 scale (0 no effect, 100 complete control)
In short: (§1)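 Seeds sown in loam soil–sand blend received a directed preemergence soil spray of test chemical in non-phytotoxic solvent with surfactant; postemergence plants (2–10 cm, one- to two-leaf stage) were sprayed with the same formulation. Greenhouse-held 10 days, then visually rated for injury versus untreated controls, 0 (no effect) to 100 (complete control).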

[2] = tested on: blackgrass; assay: Test C preemergence; format: in vivo, Alopecurus myosuroides; conditions: 0 to 100 scale (0 no effect, 100 complete control)
In short: as §1

[3] = tested on: corn; assay: Test C preemergence; format: in vivo, Zea mays; conditions: 0 to 100 scale (0 no effect, 100 complete control)
In short: as §1

[4] = tested on: green foxtail; assay: Test C preemergence; format: in vivo, Setaria viridis; conditions: 0 to 100 scale (0 no effect, 100 complete control)
In short: as §1

[5] = tested on: kochia; assay: Test C preemergence; format: in vivo, Bassia scoparia; conditions: 0 to 100 scale (0 no effect, 100 complete control)
In short: as §1

[6] = tested on: oat, wild; assay: Test C preemergence; format: in vivo, Avena fatua; conditions: 0 to 100 scale (0 no effect, 100 complete control)
In short: as §1

[7] = tested on: pigweed, palmer; assay: Test C preemergence; format: in vivo, Amaranthus palmeri; conditions: 0 to 100 scale (0 no effect, 100 complete control)
In short: as §1

[8] = tested on: ragweed; assay: Test C preemergence; format: in vivo, Ambrosia artemisiifolia; conditions: 0 to 100 scale (0 no effect, 100 complete control)
In short: as §1

[9] = tested on: ryegrass, Italian; assay: Test C preemergence; format: in vivo, Lolium multiflorum; conditions: 0 to 100 scale (0 no effect, 100 complete control)
In short: as §1

[10] = tested on: soybean; assay: Test C preemergence; format: in vivo, Glycine max; conditions: 0 to 100 scale (0 no effect, 100 complete control)
In short: as §1

[11] = tested on: wheat; assay: Test C preemergence; format: in vivo, Triticum aestivum; conditions: 0 to 100 scale (0 no effect, 100 complete control)
In short: as §1

[12] = tested on: barnyardgrass; assay: Test C postemergence; format: in vivo, Echinochloa crusgalli; conditions: 10 days
In short: as §1

[13] = tested on: blackgrass; assay: Test C postemergence; format: in vivo, Alopecurus myosuroides; conditions: 10 days
In short: as §1

[14] = tested on: corn; assay: Test C postemergence; format: in vivo, Zea mays; conditions: 10 days
In short: as §1

[15] = tested on: green foxtail; assay: Test C postemergence; format: in vivo, Setaria viridis; conditions: 10 days
In short: as §1

[16] = tested on: kochia; assay: Test C postemergence; format: in vivo, Bassia scoparia; conditions: 10 days
In short: as §1

[17] = tested on: oat, wild; assay: Test C postemergence; format: in vivo, Avena fatua; conditions: 10 days
In short: as §1

[18] = tested on: pigweed, palmer; assay: Test C postemergence; format: in vivo, Amaranthus palmeri; conditions: 10 days
In short: as §1

[19] = tested on: ragweed; assay: Test C postemergence; format: in vivo, Ambrosia artemisiifolia; conditions: 10 days
In short: as §1

[20] = tested on: ryegrass, Italian; assay: Test C postemergence; format: in vivo, Lolium multiflorum; conditions: 10 days
In short: as §1

[21] = tested on: soybean; assay: Test C postemergence; format: in vivo, Glycine max; conditions: 10 days
In short: as §1

[22] = tested on: wheat; assay: Test C postemergence; format: in vivo, Triticum aestivum; conditions: 10 days
In short: as §1

[23] = tested on: galium; assay: Test C postemergence; format: in vivo, Galium aparine; conditions: 10 days
In short: as §1

[24] = tested on: horseweed; assay: Test C postemergence; format: in vivo, Erigeron canadensis; conditions: 10 days
In short: as §1

[25] = tested on: barnyardgrass; assay: Test D flooded paddy test; format: in vivo, Echinochloa crus-galli; conditions: 250 g ai/ha, applied to paddy water, visual rating after 13 to 14 days, scale 0 to 100 (0 no effect, 100 complete control)
In short: (§2)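 2-leaf plants; flood 3 cm above soil; compound dosed into paddy water; greenhouse 13–14 d; visual rating vs controls, 0–100 (100 = complete control); dash = not tested.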

[26] = tested on: ducksalad; assay: Test D flooded paddy test; format: in vivo, Heteranthera limosa; conditions: 250 g ai/ha, applied to paddy water, visual rating after 13 to 14 days, scale 0 to 100 (0 no effect, 100 complete control)
In short: as §2

[27] = tested on: rice; assay: Test D flooded paddy test; format: in vivo, Oryza sativa; conditions: 250 g ai/ha, applied to paddy water, visual rating after 13 to 14 days, scale 0 to 100 (0 no effect, 100 complete control)
In short: as §2

[28] = tested on: sedge, umbrella; assay: Test D flooded paddy test; format: in vivo, Cyperus difformis; conditions: 250 g ai/ha, applied to paddy water, visual rating after 13 to 14 days, scale 0 to 100 (0 no effect, 100 complete control)
In short: as §2

[29] = Preemergence, 500 g ai/ha, visual rating after 10 days
[30] = Test C, preemergence, 125 g ai/ha
[31] = 125 g ai/ha, postemergence, 0 to 100 scale, 0 no effect, 100 complete control
[32] = Postemergence, 500 g ai/ha, visual 0 to 100 scale (0 no effect, 100 complete control)

In the case of `CCc1ncn(-c2ccc(C)c(C(=O)N3CC(C(F)(F)F)Oc4c(Cl)cccc43)c2)n1` (single isomer, unassigned) [Compound 218], the “Plant response rating, Barnyardgrass” value [1, 29] is reported as 100, the “Barnyardgrass plant response rating” value [1, 30] is reported as 100 and the “Plant response rating, Blackgrass” value [2, 29] is reported as 80. For the same compound, the “Blackgrass plant response rating” value [2, 30] was 40, the “Plant response rating, Corn” value [3, 29] was 60 and the “Corn plant response rating” value [3, 30] was 20. For the same compound, the “Plant response rating, Foxtail, Green” value [4, 29] was 100, the “Foxtail, Green plant response rating” value [4, 30] was 100 and the “Plant response rating, Kochia” value [5, 29] was 100. The “Kochia plant response rating” value [5, 30] was 90, the “Plant response rating, Oat, Wild” value [6, 29] was 90 and the “Oat, Wild plant response rating” value [6, 30] was 60. The “Plant response rating, Pigweed, Palmer” value [7, 29] was 100, the “Pigweed, Palmer plant response rating” value [7, 30] was 100 and the “Plant response rating, Ragweed” value [8, 29] was 80. The “Ragweed plant response rating” value [8, 30] was 20, the “Plant response rating, Ryegrass, Italian” value [9, 29] was 90 and the “Ryegrass, Italian plant response rating” value [9, 30] was 90. For the same compound, the “Plant response rating, Soybean” value [10, 29] was 100, the “Soybean plant response rating” value [10, 30] was 90 and the “Plant response rating, Wheat” value [11, 29] was 80. The “Wheat plant response rating” value [11, 30] was 30, the “Plant response rating, Barnyardgrass” value [12, 31] was 100 and the “Plant response rating, Barnyardgrass” value [12, 32] was 100. The “Plant response rating, Blackgrass” value [13, 31] was 90, the “Plant response rating, Blackgrass” value [13, 32] was 100 and the “Plant response rating, Corn” value [14, 31] was 70. The “Plant response rating, Corn” value [14, 32] was 70, the “Plant response rating, Foxtail, Green” value [15, 31] was 90 and the “Plant response rating, Foxtail, Green” value [15, 32] was 90. The “Plant response rating, Kochia” value [16, 31] was 90, the “Plant response rating, Kochia” value [16, 32] was 100 and the “Plant response rating, Oat, Wild” value [17, 31] was 30. The “Plant response rating, Oat, Wild” value [17, 32] was 80, the “Plant response rating, Pigweed, Palmer” value [18, 31] was 90 and the “Plant response rating, Pigweed, Palmer” value [18, 32] was 90. For the same compound, the “Plant response rating, Ragweed” value [19, 31] was 80, the “Plant response rating, Ragweed” value [19, 32] was 80 and the “Plant response rating, Ryegrass, Italian” value [20, 31] was 80. The “Plant response rating, Ryegrass, Italian” value [20, 32] was 90, the “Plant response rating, Soybean” value [21, 31] was 100 and the “Plant response rating, Soybean” value [21, 32] was 100. The “Plant response rating, Wheat” value [22, 31] was 60, the “Plant response rating, Wheat” value [22, 32] was 90 and the “Plant response rating, Galium” value [23, 31] was 100. For the same compound, the “Plant response rating, Galium” value [23, 32] was 100, the “Plant response rating, Horseweed” value [24, 31] was 0 and the “Plant response rating, Horseweed” value [24, 32] was 70. The “Plant response rating, Barnyardgrass (Flood)” value [25] was 0, the “Plant response rating, Ducksalad (Flood)” value [26] was 60 and the “Plant response rating, Rice (Flood)” value [27] was 0. The “Plant response rating, Sedge, Umbrella (Flood)” value [28] was 80.
